The text below walks through data of patent US20030224942A1, “Alkylamino-1,3,5-triazines, processes for their preparation and their use as herbicides and plant growth regulators” (priority 2001, published 2003).

The structures appear in SMILES notation.

Test [1] concerns Chenopodium spp., Papaver spp., Polygonum spp., Veronica spp. or Viola spp. The test can be described thus: Post-emergence effect on weeds (greenhouse pot test, visual scoring). It counts as in vivo, monocotyledonous and dicotyledonous weeds. Particulars: treated at three-leaf stage; visual scoring after about 3 to 4 weeks; application rate of 0.5 kg and less of active substance per hectare.

Test [2] concerns Cyperus spp., Echinochloa spp., Digitaria spp., Sagitaria spp. and Scirpus spp. Briefly: Action on harmful plants in rice (paddy rice conditions, visual scoring). Conditions: applied into the dammed water, visual scoring about three weeks after application. It counts as in vivo, typical rice weeds (gramineous and broad-leaved). The method, boiled down:
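Rice and typical gramineous and broad-leaved rice weeds grown in closed pots in greenhouse under paddy conditions (2-3 cm water) to three-leaf stage (Echinochloa crus-galli 1.5-leaf), then treated with compounds. Plants kept under optimum greenhouse conditions throughout; effect scored visually.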

As to `C#Cc1ccc(C(C)Nc2nc(N)nc(C(C)(C)F)n2)cc1` (centres unmarked) [Product P17.1580], the “herbicidal activity post-emergence against harmful plants” value (“herbicidal activity post-emergence” below) in test [1] is “very good herbicidal activity”. Moreover, in test [2], the “herbicidal activity against harmful plants which are typical for rice crops” value (“herbicidal activity … for rice crops” below) was “very good herbicidal activity”.
Consider `CCC(F)c1nc(N)nc(NC(C)c2ccc(F)c(C3CC3)c2)n1` (centres unmarked) [Product P27.916], for which the “herbicidal activity post-emergence” value in test [1] was “very good herbicidal activity”. The “herbicidal activity … for rice crops” value in test [2] is reported as “very good herbicidal activity”.
Turning to `CC#Cc1c(C)cc(C(C)Nc2nc(N)nc(C(C)(C)F)n2)cc1C` (centres unmarked) [Product P17.424], in test [1], the “herbicidal activity post-emergence” value is on record as “very good herbicidal activity”. Further, the “herbicidal activity … for rice crops” value in test [2] was “very good herbicidal activity”.
Regarding `C#Cc1cccc(C(Nc2nc(C)nc(N)n2)C2CC2)c1` (centres unmarked) [Product P4.1579], the “herbicidal activity post-emergence” value in test [1] is reported as “very good herbicidal activity”. The “herbicidal activity … for rice crops” value in test [2] is given as “very good herbicidal activity”.
As for `CC#Cc1cccc(C(Nc2nc(N)nc(C(F)CC)n2)C2CC2)c1` (centres unmarked) [Product P29.1582], the “herbicidal activity post-emergence” value in test [1] is on record as “very good herbicidal activity”. Besides, the “herbicidal activity … for rice crops” value in test [2] is given as “very good herbicidal activity”.
With `CC(C)c1nc(N)nc(NC(C)c2ccc(F)c(C3CC3)c2)n1` (centres unmarked) [Product P12.916], the “herbicidal activity post-emergence” value in test [1] is listed as “very good herbicidal activity”. Further, the “herbicidal activity … for rice crops” value in test [2] was “very good herbicidal activity”.
On to `CC#Cc1cc(C(C)Nc2nc(C)nc(N)n2)ccc1F` (centres unmarked) [Product P2.384], for which the “herbicidal activity post-emergence” value in test [1] was “very good herbicidal activity”. The “herbicidal activity … for rice crops” value in test [2] is recorded as “very good herbicidal activity”.
Turning to `CC(C)c1nc(N)nc(NC(C)c2ccc(C3CC3)cc2)n1` (centres unmarked) [Product P12.1604], the “herbicidal activity post-emergence” value in test [1] is “very good herbicidal activity”. Also, the “herbicidal activity … for rice crops” value in test [2] was “very good herbicidal activity”.
As to `C#Cc1cccc(C(Nc2nc(N)nc(C(F)CC)n2)C2CC2)c1` (centres unmarked) [Product P29.1579], the “herbicidal activity post-emergence” value in test [1] is given as “very good herbicidal activity”. Further, in test [2], the “herbicidal activity … for rice crops” value is reported as “very good herbicidal activity”.
On to `CC#Cc1cccc(C(Nc2nc(N)nc(CC)n2)C2CC2)c1` (centres unmarked) [Product P9.1582], for which the “herbicidal activity post-emergence” value in test [1] is reported as “very good herbicidal activity”. Moreover, in test [2], the “herbicidal activity … for rice crops” value is recorded as “very good herbicidal activity”.
As to `C#Cc1cccc(CNc2nc(N)nc(C(F)CC)n2)c1` (centres unmarked) [Product P26.1579], the “herbicidal activity post-emergence” value in test [1] is given as “very good herbicidal activity”. The “herbicidal activity … for rice crops” value in test [2] is reported as “very good herbicidal activity”.
With `CC#Cc1cccc(C(Nc2nc(N)nc(C(C)C)n2)C2CC2)c1` (centres unmarked) [Product P14.1582], the “herbicidal activity post-emergence” value in test [1] is “very good herbicidal activity”. For the same compound, in test [2], the “herbicidal activity … for rice crops” value is reported as “very good herbicidal activity”.
Take `C#Cc1ccc(C(C)Nc2nc(N)nc(C(C)(C)F)n2)cc1F` (centres unmarked) [Product P17.1620]: the “herbicidal activity post-emergence” value in test [1] is “very good herbicidal activity”. Moreover, the “herbicidal activity … for rice crops” value in test [2] is reported as “very good herbicidal activity”.
Turning to `CCCCC#Cc1ccc(C(C)Nc2nc(N)nc(C(C)(C)F)n2)cc1` (centres unmarked) [Product P17.1595], in test [1], the “herbicidal activity post-emergence” value is listed as “very good herbicidal activity”. The “herbicidal activity … for rice crops” value in test [2] was “very good herbicidal activity”.
For `C#Cc1cc(CNc2nc(N)nc(C(F)CC)n2)ccc1F` (centres unmarked) [Product P26.309], in test [1], the “herbicidal activity post-emergence” value was “very good herbicidal activity”. The “herbicidal activity … for rice crops” value in test [2] is listed as “very good herbicidal activity”.
Regarding `CC(O)C#Cc1cc(C(C)Nc2nc(N)nc(C(C)C)n2)ccc1F` (centres unmarked) [Product P12.840], the “herbicidal activity post-emergence” value in test [1] was “very good herbicidal activity”. In test [2], the “herbicidal activity … for rice crops” value is listed as “very good herbicidal activity”.
For the compound `CC(Nc1nc(N)nc(C(C)(C)F)n1)c1ccc(C2CC2)cc1` (centres unmarked) [Product P17.1604], the “herbicidal activity post-emergence” value in test [1] is reported as “very good herbicidal activity”. For the same compound, the “herbicidal activity … for rice crops” value in test [2] was “very good herbicidal activity”.
Turning to `Cc1nc(N)nc(NC(c2ccc(F)c(C(F)=C(F)F)c2)C2CC2)n1` (centres unmarked) [Product P4.5], the “herbicidal activity post-emergence” value in test [1] is recorded as “very good herbicidal activity”. In test [2], the “herbicidal activity … for rice crops” value is given as “very good herbicidal activity”.
Consider `CC#Cc1cccc(C(Nc2nc(C)nc(N)n2)C2CC2)c1` (centres unmarked) [Product P4.1582], for which, in test [1], the “herbicidal activity post-emergence” value is reported as “very good herbicidal activity”. In addition, the “herbicidal activity … for rice crops” value in test [2] was “very good herbicidal activity”.
For `C#Cc1ccc(C(C)Nc2nc(N)nc(C(C)F)n2)cc1C` (centres unmarked) [Product P22.335], the “herbicidal activity post-emergence” value in test [1] is given as “very good herbicidal activity”. The “herbicidal activity … for rice crops” value in test [2] is given as “very good herbicidal activity”.
`C=C=Cc1c(F)cc(C(C)Nc2nc(N)nc(C(C)F)n2)cc1F` (centres unmarked) [Product P22.656]: the “herbicidal activity post-emergence” value in test [1] is reported as “very good herbicidal activity”. In test [2], the “herbicidal activity … for rice crops” value is reported as “very good herbicidal activity”.
Take `CC(C)(F)c1nc(N)nc(NC(c2cccc(C3CC3)c2)C2CC2)n1` (centres unmarked) [Product P19.1603]: the “herbicidal activity post-emergence” value in test [1] is given as “very good herbicidal activity”. In addition, the “herbicidal activity … for rice crops” value in test [2] is “very good herbicidal activity”.
As for `CC(C)c1nc(N)nc(NCc2ccc(C(F)=C(F)F)cc2)n1` [Product P11.1568], the “herbicidal activity post-emergence” value in test [1] is reported as “very good herbicidal activity”. In test [2], the “herbicidal activity … for rice crops” value was “very good herbicidal activity”.
In the case of `Cc1nc(N)nc(NC(c2cccc(C(F)=C(F)F)c2)C2CC2)n1` (centres unmarked) [Product P4.1567], the “herbicidal activity post-emergence” value in test [1] is recorded as “very good herbicidal activity”. Besides, the “herbicidal activity … for rice crops” value in test [2] is on record as “very good herbicidal activity”.
As for `C#Cc1c(F)cc(CNc2nc(N)nc(C(F)CC)n2)cc1F` (centres unmarked) [Product P26.352], in test [1], the “herbicidal activity post-emergence” value was “very good herbicidal activity”. Further, the “herbicidal activity … for rice crops” value in test [2] is given as “very good herbicidal activity”.
As for `CC#Cc1cc(CNc2nc(N)nc(CC)n2)ccc1F` [Product P6.384], the “herbicidal activity post-emergence” value in test [1] is reported as “very good herbicidal activity”. For the same compound, in test [2], the “herbicidal activity … for rice crops” value is given as “very good herbicidal activity”.
Consider `CC#Cc1cccc(CNc2nc(N)nc(C(C)(C)F)n2)c1` [Product P16.1582], for which the “herbicidal activity post-emergence” value in test [1] is reported as “very good herbicidal activity”. For the same compound, the “herbicidal activity … for rice crops” value in test [2] is “very good herbicidal activity”.
In the case of `CC#Cc1cccc(C(Nc2nc(N)nc(C(C)(C)F)n2)C2CC2)c1` (centres unmarked) [Product P19.1582], the “herbicidal activity post-emergence” value in test [1] is listed as “very good herbicidal activity”. The “herbicidal activity … for rice crops” value in test [2] is recorded as “very good herbicidal activity”.
